# Source: patent US20160002710A1, “REPORTER PHAGE AND […] BACTERIA” (priority 2014, published 2016)
# Key:
# Assay type in all cases: cell-based
# S. flexneri ATCC 25875 [1] = experiment: Reporter phage (Shfl25875::luxAB) bioluminescence antibiotic susceptibility assay; details: 5 h growth with antibiotic, infection with reporter phage, read after 20 min
# Procedure: (§1) Cells (5×10^5 CFU/mL) and antibiotics were prepared in cation-adjusted Mueller Hinton broth according to CLSI methodology. […] The same Shigella inoculum was grown for 5 h at 35° C. in the presence of antibiotics, infected with Shfl::luxAB, and bioluminescence assayed after 20 min.
# (§2) Therefore, the ability of Shfl25875::luxAB to confer bioluminescence signal to Shigella spp. in the presence of antibiotics was compared to the standard CLSI broth microdilution method. […] Cells were incubated with a range of antibiotic concentrations in microtiter plates, incubated at 35° C., and assessed for growth (A625) after 20 h as per the CLSI protocol, or bioluminescence following infection by Shfl25875::luxAB.
# E. coli ATCC 25922 = experiment: microbe, parasite or virus in culture; details: Escherichia coli, ATCC25922; cation-adjusted Mueller Hinton broth, 35° C., 20 h; within the acceptable range
# Procedure: as §1
# S. flexneri ATCC 25875 [2] = experiment: microbe, parasite or virus in culture; details: Shigella flexneri, ATCC25875; growth (A625) after 20 h at 35° C.; read-out: minimum inhibitory concentration
# Procedure: as §1, §2
structure (smiles),measurement,setting,value
CC1(C)S[C@@H]2[C@H](NC(=O)[C@H](N)c3ccccc3)C(=O)N2[C@H]1C(=O)O [ampicillin],Bioluminescence at antibiotic concentrations at the minimum inhibitory concentration or higher,S. flexneri ATCC 25875 [1],at or close to background
same,MIC,E. coli ATCC 25922,2 µg/mL
same,MIC,S. flexneri ATCC 25875 [2],1 µg/mL
